Results published in patent US20230022880A1, “Antimicrobial Composition” (INSTITUTE OF TECHNOLOGY SLIGO, priority 2019, published 2023).

Tested on: several species of micro-organisms (Candida spp, Pseudomonas spp, E. coli)
Experiment: Well diffusion bioassay, zones of inhibition
Type: cell-based
Details: NaCl tested on its own
Description: Escherichia coli (NCIMB 8545), Staphylococcus aureus (NCIMB 9518) and Pseudomonas aeruginosa (NCIMB 8626) are grown on nutrient agar or in nutrient broth for 24 hrs at 37° C.
Candida albicans (NCIMB 3179) and Saccharomyces cerevisiae are grown on sabaroud dextrose agar or in sabaroud dextrose broth for 24 hrs at 37° C. […]
Bacterial growth is monitored by measuring the culture optical density (OD) in a spectrophotometer (Anthos 2010) at a wavelength of 620 nm.
The formulations were assessed for antimicrobial activity against several species of micro-organisms (several of which produce catalase; Candida spp, Pseudomonas spp, E. coli) using the well diffusion bioassay, results were obtained by measuring the zones of inhibition (n=3).
Agar plates are inoculated by swabbing overnight culture onto the plate surface. Plates are allowed to stand at room temperature for 15 minutes before use. Wells 8.2 mm diameter are bored into the surface of the agar. A 180 μl sample is placed into each well. The samples diffuse into the agar around the well and are assayed for an ability to produce a zone of inhibition. Plates are incubated for 24, 48 or 72 hrs and zones of inhibition are measured using an Autodata automatic zone reader. The diameter of zones, including the diameter of the well (8.2 mm), is recorded. […]

SMILES: [Cl-].[Na+] [NaCl, sodium chloride]
- Antimicrobial activity: no discernible activity
